Data on nine compounds can be found in ChEMBL document CHEMBL1201862, “PubChem BioAssay data set” (2004).

Among the test systems are M14; RPMI-8226; SK-MEL-28; HCC 2998; Malme-3M; OVCAR-5; NCI-H23; SF-539; SK-OV-3; KM12; UACC-257; SNB-19; CAKI-1; ACHN; HT-29; HCT-15; PC-3; NCI/ADR-RES; MDA-MB-231; Hs-578T.
Holding throughout (assay): growth of human tumour cells (NCI), 48 h

Molecules are shown by their SMILES.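 Each compound was tested at five concentrations against cells in 96-well plates for 48 hours. GI50 is the concentration that inhibits growth by half.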 Activity calls are given as the source filed them. Cut-off read from the data, not from the text of the source: active = GI50 up to about 1.1 µM and inactive = higher.

For `FC(F)(F)C1(Cl)C(c2ccccc2)=C1c1ccccc1`, the GI50 in the test with M14 is 12.8 µM (inactive); in the test on RPMI-8226, 29.7 µM (inactive); with SK-MEL-28 it was 14.9 µM (inactive); in the test with HCC 2998, 17.7 µM (inactive); in the test on Malme-3M, 15.1 µM (inactive); with OVCAR-5, 17.4 µM (inactive). The GI50 was 15.7 µM (inactive) with NCI-H23; 15.6 µM (inactive) with SF-539; 18.2 µM (inactive) in the test on SK-OV-3; 15.6 µM (inactive) in the test with KM12; 14 µM (inactive) in the test with UACC-257; 17.9 µM (inactive) with SNB-19. For the same compound, the GI50 with CAKI-1 is 12.6 µM (inactive); with ACHN, 16.6 µM (inactive); in the test on HT-29 it was 15.8 µM (inactive); in the test on HCT-15, 14.3 µM.
As for `CCOC(=O)CC1C(C(=O)OCC)=Cn2c([nH]c3cccc4cccc2c43)=C1C(=O)OCC` (stereo not given), the GI50 in the test on M14, in the test with RPMI-8226, with SK-MEL-28, in the test with HCC 2998, with OVCAR-5 and with NCI-H23 was > 100 µM (inactive) throughout. Also, the GI50 in the test on SK-OV-3 was > 100 µM (inactive); with KM12 it was > 100 µM (inactive); with PC-3 it was 91 µM (inactive); in the test on UACC-257, > 100 µM (inactive); in the test on SNB-19, > 100 µM (inactive); with CAKI-1 it was > 100 µM (inactive). Further, the GI50 was > 100 µM (inactive) with ACHN, > 100 µM (inactive) in the test on NCI/ADR-RES, > 100 µM (inactive) in the test with HT-29 and greater than 100 µM with HCT-15.
Consider `COC(=O)C1C(OCc2ccccc2)C2CCC1(OC)C=C2C` (stereo not given), for which the GI50 in the test with M14 is 60.8 µM (inactive); in the test with RPMI-8226, 23.6 µM (inactive); in the test on SK-MEL-28, > 100 µM (inactive); with HCC 2998, 62.5 µM (inactive); in the test on Malme-3M it was > 100 µM (inactive); in the test on OVCAR-5 it was > 100 µM (inactive). In addition, the GI50 is > 88.5 µM (inactive) in the test with NCI-H23; 97.7 µM (inactive) with SF-539; > 100 µM (inactive) in the test on SK-OV-3; > 100 µM (inactive) in the test with KM12; 42.8 µM (inactive) with UACC-257; > 81.8 µM (inactive) in the test with SNB-19. The GI50 in the test with CAKI-1 is > 77.6 µM (inactive); in the test on ACHN, > 61.8 µM (inactive); in the test on HT-29, > 100 µM (inactive); in the test with HCT-15, greater than 89.3 µM.
As for `COc1ccc(C2(CC(C)C)CCN(S(=O)(=O)c3ccc(C)cc3)C2)cc1OC` (stereo not given), the GI50 in the test with M14 is 34.8 µM (inactive); with SK-MEL-28 it was 30.1 µM (inactive); with MDA-MB-231 it was > 100 µM (inactive); in the test with HCC 2998, 27.6 µM (inactive); in the test on OVCAR-5 it was > 100 µM (inactive); in the test on NCI-H23, 29.8 µM (inactive). Also, the GI50 was 37 µM (inactive) in the test with SF-539; 36.9 µM (inactive) in the test on SK-OV-3; 23.3 µM (inactive) in the test with KM12; 28.5 µM (inactive) in the test on PC-3; 28.5 µM (inactive) with UACC-257; 49.7 µM (inactive) in the test with SNB-19. For the same compound, the GI50 in the test on CAKI-1 is > 100 µM (inactive); in the test with ACHN, 36.6 µM (inactive); in the test on NCI/ADR-RES, 18.5 µM (inactive); in the test with HT-29, 35.6 µM (inactive); in the test with HCT-15 it was 31.7 µM.
`NNC(=O)c1nn[nH]c1C(=O)NN`: the GI50 in the test with M14 was > 100 µM (inactive); with RPMI-8226, > 100 µM (inactive); with MDA-MB-231, > 100 µM (inactive); in the test with HCC 2998, > 100 µM (inactive); with Malme-3M it was 15.1 µM (inactive); with OVCAR-5, > 100 µM (inactive). The GI50 is > 100 µM (inactive) in the test on NCI-H23; > 100 µM (inactive) in the test with KM12; > 100 µM (inactive) in the test on PC-3; > 100 µM (inactive) in the test on UACC-257; > 100 µM (inactive) in the test with SNB-19; 15.8 µM (inactive) in the test with CAKI-1. Besides, the GI50 is > 100 µM (inactive) with NCI/ADR-RES, 13.5 µM (inactive) in the test with HT-29 and greater than 100 µM in the test with HCT-15.
In the case of `CC(C)(C)NNC(=O)CCn1[nH]c(=O)c(Cl)c(Cl)c1=O`, the GI50 in the test on M14, in the test with RPMI-8226, in the test on SK-MEL-28, with HCC 2998, in the test with Malme-3M and in the test on OVCAR-5 was > 100 µM (inactive) each time. The GI50 in the test with NCI-H23, in the test with SF-539, with SK-OV-3, in the test on KM12, with UACC-257 and in the test with SNB-19 was > 100 µM (inactive) each time. The GI50 in the test with CAKI-1 is > 100 µM (inactive); in the test on ACHN, > 100 µM (inactive); in the test on HT-29, > 100 µM (inactive); with HCT-15 it was greater than 100 µM.
As to `O=C(CCc1n[nH]c(=S)o1)Nc1ccc(Cl)cc1Cl`, the GI50 in the test on M14 was > 100 µM (inactive); in the test on RPMI-8226 it was 16.9 µM (inactive); with SK-MEL-28, > 100 µM (inactive); with HCC 2998, > 100 µM (inactive); in the test with Malme-3M, > 100 µM (inactive); in the test with OVCAR-5, > 100 µM (inactive). The GI50 with NCI-H23, in the test on SF-539, in the test on SK-OV-3, in the test with KM12, in the test on UACC-257 and with SNB-19 was > 100 µM (inactive) throughout. Further, the GI50 in the test on CAKI-1 was > 100 µM (inactive); in the test with ACHN, > 100 µM (inactive); in the test on HT-29, 34.3 µM (inactive); in the test on HCT-15 it was 20.9 µM.
As to `COc1cc(C2c3cc4c(cc3[C@@H](Nc3ccccc3)C3CO[C@@H](OC)[C@H]23)OCO4)cc(OC)c1O` (stereo not given in full), the GI50 with M14 was 10.4 µM (inactive); in the test on RPMI-8226 it was 3.01 µM (inactive); in the test with Hs-578T it was 3.21 µM (inactive); with SK-MEL-28, 19.6 µM (inactive); in the test with HCC 2998, 6.9 µM (inactive); in the test with OVCAR-5, 6.07 µM (inactive). For the same compound, the GI50 is 5.41 µM (inactive) with SF-539; 9.06 µM (inactive) in the test on SK-OV-3; 5.83 µM (inactive) in the test on KM12; 8.81 µM (inactive) in the test on PC-3; > 25 µM (inactive) in the test with UACC-257; 6.07 µM (inactive) in the test with SNB-19. The GI50 in the test with ACHN is 3.18 µM (inactive); in the test with NCI/ADR-RES, 14.6 µM (inactive); in the test with HT-29 it was 4.82 µM (inactive); in the test with HCT-15 it was 3.61 µM.
Regarding `Cc1nn2c(N)cc(=O)nc2nc1/C=C/c1ccc(N(C)C)cc1`, the GI50 is > 28 µM (inactive) in the test with M14; 10.1 µM (inactive) in the test on RPMI-8226; 6.84 µM (inactive) with Hs-578T; > 84.5 µM (inactive) with SK-MEL-28; 3.18 µM (inactive) in the test on HCC 2998; 5.2 µM (inactive) in the test on Malme-3M. Besides, the GI50 is 17.5 µM (inactive) in the test on OVCAR-5; 10.4 µM (inactive) in the test with NCI-H23; > 100 µM (inactive) in the test with SK-OV-3; > 28.8 µM (inactive) in the test with KM12; > 100 µM (inactive) with PC-3; 17.3 µM (inactive) in the test with UACC-257. Moreover, the GI50 in the test with SNB-19 is 29.9 µM (inactive); with CAKI-1, 3.45 µM (inactive); in the test on ACHN it was 18 µM (inactive); in the test with NCI/ADR-RES it was > 100 µM (inactive); in the test on HT-29, 4.76 µM (inactive).
